Test results: article PMC3502291, “Identification of Small Molecule Inhibitors of PTPσ through an Integrative Virtual and Biochemical Approach” (PLoS ONE, 2012)

Tests used:
Format in all cases: biochemical
PTPσ [1] = target: T1, PTPσ (Homo sapiens, UniProt Q13332); assay: pNPP phosphatase assay with purified GST-PTPσ, positive control
T1 construct: gene PTPRS; GST-tagged recombinant PTPσ, all residues C-terminal to the transmembrane domain (BC104812 cDNA; aa 883-1501)
T1 sequence (Q13332 1330-1948): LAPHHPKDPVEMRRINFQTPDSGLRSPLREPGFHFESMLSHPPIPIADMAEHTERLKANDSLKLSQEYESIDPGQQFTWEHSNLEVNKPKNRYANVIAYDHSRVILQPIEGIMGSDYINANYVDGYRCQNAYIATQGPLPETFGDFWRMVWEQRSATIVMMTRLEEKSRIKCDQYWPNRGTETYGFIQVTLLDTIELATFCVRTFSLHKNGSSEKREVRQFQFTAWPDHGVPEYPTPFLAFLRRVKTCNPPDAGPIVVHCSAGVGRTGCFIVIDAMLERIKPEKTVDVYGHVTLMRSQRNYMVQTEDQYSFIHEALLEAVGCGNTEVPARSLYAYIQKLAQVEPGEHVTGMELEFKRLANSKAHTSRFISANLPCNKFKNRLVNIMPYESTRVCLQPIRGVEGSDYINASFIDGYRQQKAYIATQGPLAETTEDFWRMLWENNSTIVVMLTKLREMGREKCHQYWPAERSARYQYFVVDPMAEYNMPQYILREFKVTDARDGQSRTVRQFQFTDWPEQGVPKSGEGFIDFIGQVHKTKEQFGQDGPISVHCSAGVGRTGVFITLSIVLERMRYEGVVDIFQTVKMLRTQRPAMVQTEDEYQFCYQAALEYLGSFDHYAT

PTPσ [2] = target: T1, PTPσ; assay: pNPP phosphatase assay with purified GST-PTPσ, dose-response, with and without catalase
PTPσ [3] = target: T1, PTPσ; assay: Km from initial velocities of dephosphorylation ([…] nm absorbance)

`[O]=[V]([OH])([OH])[OH]` [Na3VO4, sodium orthovanadate] was tested, and the “pNPP phosphatase assay with purified GST-PTPσ, positive control” value (PTPσ [1]) was “Sodium orthovanadate (Na3VO4) is a pan inhibitor of PTPs and was included as a positive control”.
Molecule `O=C(C=CNc1cc([N+](=O)[O-])ccc1O)c1ccc(Cl)c(Cl)c1` [compound 36, 1-(3,4-dichlorophenyl)-3-[(2-hydroxy-5-nitrophenyl)amino]-2-propen-1-one] has an IC50 (PTPσ [2]) of 10 µM.
Work on para-nitrophenyl phosphate [pNPP] yielded a Km (PTPσ [3]) of 250 µM.
